Reference: patent US10160747B2, “Compounds and methods for kinase modulation, and indications therefor” (Plexxikon Inc., priority 2016, dated 2018)
Residue numbers refer to the chain shown, from its start.

Tests used:
[1] = biological target: T1, BaF3-FLT3-ITD-F691L (Homo sapiens, UniProt P36888, F691L, cells depend on it, form not given); test: Cell Assay CS0047: BaF3-FLT3-ITD-F691L CTB; type: cell-based, murine; settings: three day growth assay in the absence of IL3; read-out: Cell Assay: CS0047: BaF3-FLT3-ITD-F691L CTB:IC50
T1 sequence (P36888 with tags, fused parts or gaps INS600HVDFREYEYD/F691L): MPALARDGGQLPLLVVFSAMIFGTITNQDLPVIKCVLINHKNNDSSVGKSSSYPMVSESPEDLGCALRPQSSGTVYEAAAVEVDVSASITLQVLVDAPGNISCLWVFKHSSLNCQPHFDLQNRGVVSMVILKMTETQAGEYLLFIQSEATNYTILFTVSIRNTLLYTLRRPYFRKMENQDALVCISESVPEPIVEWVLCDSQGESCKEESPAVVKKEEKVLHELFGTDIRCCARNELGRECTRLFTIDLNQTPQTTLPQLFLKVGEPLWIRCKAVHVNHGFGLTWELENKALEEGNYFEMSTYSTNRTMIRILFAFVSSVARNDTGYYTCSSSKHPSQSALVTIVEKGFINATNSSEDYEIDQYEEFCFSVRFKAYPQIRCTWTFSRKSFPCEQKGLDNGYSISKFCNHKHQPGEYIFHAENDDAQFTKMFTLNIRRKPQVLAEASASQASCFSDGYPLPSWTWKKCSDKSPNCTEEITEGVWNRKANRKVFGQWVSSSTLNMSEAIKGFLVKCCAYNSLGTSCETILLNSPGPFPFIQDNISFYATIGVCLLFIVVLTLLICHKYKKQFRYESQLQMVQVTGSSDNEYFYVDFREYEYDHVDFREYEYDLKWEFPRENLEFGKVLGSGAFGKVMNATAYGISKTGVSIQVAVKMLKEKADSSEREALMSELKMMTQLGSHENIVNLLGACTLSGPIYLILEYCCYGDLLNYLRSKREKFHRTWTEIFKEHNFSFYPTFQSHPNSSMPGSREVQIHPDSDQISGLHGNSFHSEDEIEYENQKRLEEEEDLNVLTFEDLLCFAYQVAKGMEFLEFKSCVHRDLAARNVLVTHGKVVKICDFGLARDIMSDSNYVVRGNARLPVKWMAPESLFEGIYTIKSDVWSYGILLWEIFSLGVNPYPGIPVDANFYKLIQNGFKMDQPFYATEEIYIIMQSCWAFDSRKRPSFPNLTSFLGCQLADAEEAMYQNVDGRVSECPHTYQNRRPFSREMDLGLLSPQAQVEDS
Description: (§1) The BaF3 assays as developed used to generate the data in Tables 7 and 8 are identical and differ only in minor details in regards to vector design, not biological function. Both introduce the FLT3 gene with MV4-11 based ITD duplications and resistance mutations from an exogenous promoter (MSCV and CMV respectively) in the exact same cell line.
(§2) As a result of the expressed FLT3 protein, the IL3 factor dependent BaF3 cell clones become IL3-factor independent.
(§3) The compounds in Tables 7 and 8 were tested in an identical fashion by incubating such clones in with increasing concentrations. Inhibition of the FLT3 activity by an inhibitor results in factor dependency, which in the absence of IL3 results in cell death in the three day growth assays.

[2] = biological target: T2, BaF3-FLT3-ITD-D835V (Homo sapiens, UniProt P36888, D835V, cells depend on it, form not given); test: Cell Assay CS0048: BaF3-FLT3-ITD-D835V CTB; type: cell-based, murine; settings: three day growth assay in the absence of IL3; read-out: Cell Assay: CS0048: BaF3-FLT3-ITD-D835V CTB:IC50
T2 sequence (P36888 with tags, fused parts or gaps INS600HVDFREYEYD/D835V): T1 sequence (P36888 with tags, fused parts or gaps INS600HVDFREYEYD/F691L) with L701F, D845V
Description: as §1, §2, §3

Work on `CC(C)(c1cc(NC(=O)Cc2ccc(-c3ccc(NCCN4CCOCC4)nc3)cc2)no1)C(F)(F)F` yielded a GI50 [1] of 73.9 nM and a GI50 [2] of 145 nM.

Compound `CNc1ccc(-c2ccc(CC(=O)Nc3cc(C(C)(C)C)on3)cc2)cn1` has a GI50 [1] of 43.2 nM and a GI50 [2] of 92 nM.

`CCNc1ccc(-c2ccc(CC(=O)Nc3cc(C(C)(C)C)on3)cc2)cn1` was tested, and the GI50 [1] was 45.4 nM and the GI50 [2] was 94.2 nM.

`CC(C)(C)c1cc(NC(=O)Nc2ccc(-c3cnc(NC4CCOCC4)nc3)cn2)no1` showed a GI50 [1] of 110 nM and a GI50 [2] of 673 nM.

Compound `CC(C)(C)c1cc(NC(=O)Nc2ccc(-c3cnc(NC4CC4)nc3)cn2)no1` has a GI50 [1] of 77.8 nM and a GI50 [2] of 585 nM.
